The results in this text go back to patent US6825185B2, “Substituted aryl compounds as novel cyclooxygenase-2 selective inhibitors, compositions and methods of use” (NitroMed, Inc., priority 2000, dated 2004).

For one test, the target named is T1, COX-2 (Homo sapiens, UniProt P35354).
T1 sequence (P35354 18-604): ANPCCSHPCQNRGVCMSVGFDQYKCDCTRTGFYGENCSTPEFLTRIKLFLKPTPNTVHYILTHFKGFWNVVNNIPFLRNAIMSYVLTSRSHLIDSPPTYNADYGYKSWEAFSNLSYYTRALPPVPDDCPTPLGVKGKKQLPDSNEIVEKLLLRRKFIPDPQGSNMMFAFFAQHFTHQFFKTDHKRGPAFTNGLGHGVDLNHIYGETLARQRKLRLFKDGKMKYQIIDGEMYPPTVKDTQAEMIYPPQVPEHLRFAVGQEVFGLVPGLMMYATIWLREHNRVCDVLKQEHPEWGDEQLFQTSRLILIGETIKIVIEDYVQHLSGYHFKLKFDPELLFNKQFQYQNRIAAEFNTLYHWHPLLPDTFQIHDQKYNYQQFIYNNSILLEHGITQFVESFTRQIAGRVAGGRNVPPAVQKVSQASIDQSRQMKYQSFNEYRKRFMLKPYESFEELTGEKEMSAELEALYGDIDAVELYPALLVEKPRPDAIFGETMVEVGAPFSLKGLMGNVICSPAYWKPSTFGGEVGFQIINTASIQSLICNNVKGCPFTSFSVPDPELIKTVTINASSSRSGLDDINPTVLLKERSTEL
Kind of test: COX-2 enzyme activity in human whole blood (LPS induced, thromboxane B2 EIA). Type of test: cell-based. Further details: Human blood (≈50 mL) from male or female donors who had not received any aspirin or NSAIDs for 14 days; endogenous in cells; host or cells: human whole blood from donors, LPS-induced. As to conditions: test compound at 10 μM. The protocol:
(§1) Human blood (≈50 mL) from male or female donors who had not received any aspirin or NSAIDs for 14 days was collected at two local area blood donor centers and placed in polypropylene syringes containing sodium heparin (20 units per mL blood, final concentration). The blood was transported to the laboratory on ice packs and used within 1.5 hours of collection. Upon receipt in the laboratory, the blood was allowed to come to room temperature for 15 minutes prior to distribution in 1 mL aliquots per well of 24 well tissue culture plates. The plates were then placed on a gently rotating platform shaker in a 5% CO2 incubator at 37° C. for 15 minutes. Test compounds were dissolved in DMSO, at 1000 fold the final desired concentration, and further diluted, as indicated, in DMSO. One μL of each dilution of the test compound was added per well, in duplicate wells; wells not receiving test compound (e.g., basal, background or control wells) received 1 μL DMSO.
To induce COX-2, lipopolysaccharide (LPS) from E. coli (LPS, serotype 026:B6 or serotype 0127:B8, Sigma Chemical Co., St. Louis, Mo., Catalogue No. L3755 or L3129, respectively) was added at 10 μg/mL (2 μL of 5 mg/mL LPS in DMSO) to appropriate wells 15 minutes after the addition of the test compound. […] (Again, basal, background or control wells not stimulated with A23187 received 1 μL of DMSO.) At 5 hours after the addition of the test compound, all incubations were terminated by placement on ice and the addition of 2 mM EGTA (100 μL of 20 mM EGTA, tetrasodium, in PBS (phosphate buffered saline) without Ca^++ and Mg^++, pH 7.2)). The resulting solutions, were transferred by polyethylene transfer pipettes to 15 mL polypropylene centrifuge tubes and centrifuged at 1200 g for 10 minutes at 4° C. One hundred μL of plasma was removed from each blood sample and added to 1 mL of methanol in new 15 mL polypropylene centrifuge tubes, vortexed, and stored overnight at −20° C. The next day, the samples were centrifuged at 2000 g for 10 minutes at 4° C. and the supernatants transferred to glass tubes and evaporated to dryness.

In the next test the target is COX-1 (Homo sapiens, UniProt P23219). Kind of test: COX-1 enzyme activity in human whole blood (A23187 stimulated, thromboxane B2 EIA). Further details: Human blood (≈50 mL) from male or female donors who had not received any aspirin or NSAIDs for 14 days; endogenous in cells; host or cells: human whole blood from donors. In kind it is cell-based. Particulars: test compound at 100 μM. The protocol:
as §1, with “The assay for COX-1 and COX-2 enzyme activity, in the human whole blood was performed as described in Brideau et al., Inflamm Res., 45: 68-74 (1996)). Human” for “Human”
To induce COX-2, lipopolysaccharide (LPS) from E. coli (LPS, serotype 026:B6 or serotype 0127:B8, Sigma Chemical Co., St. Louis, Mo., Catalogue No. L3755 or L3129, respectively) was added at 10 μg/mL (2 μL of 5 mg/mL LPS in DMSO) to appropriate wells 15 minutes after the addition of the test compound. (Basal or background wells not incubated with LPS received 2 μL of DMSO.) For the stimulation of COX-1, the calcium ionophore, A23187 (free acid from Sigma Chemical Co., St. Louis, Mo., Catalogue No. C7522) was added at 25 μM (1 μL of 25 mM stock in DMSO) to separate wells 4.5 hours after the addition of the test compound. (Again, basal, background or control wells not stimulated with A23187 received 1 μL of DMSO.) At 5 hours after the addition of the test compound, all incubations were terminated by placement on ice and the addition of 2 mM EGTA (100 μL of 20 mM EGTA, tetrasodium, in PBS (phosphate buffered saline) without Ca^++ and Mg^++, pH 7.2)). The resulting solutions, were transferred by polyethylene transfer pipettes to 15 mL polypropylene centrifuge tubes and centrifuged at 1200 g for 10 minutes at 4° C. One hundred μL of plasma was removed from each blood sample and added to 1 mL of methanol in new 15 mL polypropylene centrifuge tubes, vortexed, and stored overnight at −20° C. The next day, the samples were centrifuged at 2000 g for 10 minutes at 4° C. and the supernatants transferred to glass tubes and evaporated to dryness. The samples were assayed for thromboxane B2 using EIA kits supplied by Cayman Chemical Co. (Ann Arbor, Mich., Catalogue No. 519031) in duplicate wells after reconstitution with EIA Buffer and appropriate dilution (2000 fold for COX-1 and 500 fold for Cox-2 samples).

Chain of COX-1 (P23219 24-599): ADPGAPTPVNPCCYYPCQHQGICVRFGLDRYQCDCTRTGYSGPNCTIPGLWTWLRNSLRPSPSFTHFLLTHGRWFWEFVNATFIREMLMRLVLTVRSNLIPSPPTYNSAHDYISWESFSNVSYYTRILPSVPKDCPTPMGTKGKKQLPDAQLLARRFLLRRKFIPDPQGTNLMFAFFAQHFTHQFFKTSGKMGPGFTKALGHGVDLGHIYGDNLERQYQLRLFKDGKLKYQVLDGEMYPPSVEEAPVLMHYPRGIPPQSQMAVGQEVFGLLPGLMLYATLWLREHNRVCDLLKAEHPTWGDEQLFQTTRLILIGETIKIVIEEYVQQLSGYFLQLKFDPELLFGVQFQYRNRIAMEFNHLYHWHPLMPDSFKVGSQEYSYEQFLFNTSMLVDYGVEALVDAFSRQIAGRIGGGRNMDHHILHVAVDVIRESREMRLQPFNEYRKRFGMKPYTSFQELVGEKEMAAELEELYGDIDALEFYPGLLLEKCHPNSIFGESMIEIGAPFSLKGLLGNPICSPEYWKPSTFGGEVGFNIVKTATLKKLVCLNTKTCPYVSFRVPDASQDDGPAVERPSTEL

In the case of “1-(7-((3,5-Difluorophenyl)methyl)-2-(hydroxymethyl)(2H, 3H-benzo(3,4-e)1,4-dioxin-6-yl))-4-(methylsulfonyl)benzene and 1-(7-((3,5-difluorophenyl)methyl)-3-(hydroxymethyl)(2H, 3H-benzo(e)1,4-dioxin-6-yl))-4-(methylsulfonyl)benzene [Example 19a]”, the “COX-2 Inhibition (% at 10 μM)” value on COX-2 was found to be 15%. In addition, the “COX-1 Inhibition (% at 100 μM)” value at COX-1 amounted to 45%.
On to `CS(=O)(=O)c1ccc(-c2cc3c(cc2Cc2ccccc2)OCO3)cc1` [Example 3c, 4-(Methylsulfonyl)-1-(6-benzyl(2H-benzo(3,4-d)1,3-dioxolan-5-yl))benzene], for which, at COX-2, the “COX-2 Inhibition (% at 10 μM)” value was determined as 50%. The “COX-1 Inhibition (% at 100 μM)” value at COX-1 came out at 65%.
In the same order, the values of `CS(=O)(=O)c1ccc(-c2cc3c(cc2Cc2ccccc2F)OCO3)cc1` [Example 4c, 1-(6-((2-Fluorophenyl)methyl)(2H-benzo(3,4-d)1,3-dioxolan-5-yl))-4-(methylsulfonyl)benzene] are 60% and 70%.
Turning to `CS(=O)(=O)c1ccc(-c2cc3c(cc2Cc2cc(F)cc(F)c2)OCC(C(=O)NCCO)O3)cc1` (stereo not shown) [Example 18c, (6-((3,5-Difluorophenyl)methyl)-7-(4-(methylsulfonyl)phenyl)(2H, 3H-benzo(e)1,4-dioxin-2-yl))-N-(2-hydroxyethyl)carboxamide], the inhibition at 10 µM against COX-2 amounted to 40%. The inhibition at 100 µM at COX-1 came out at 90%.
In the case of `O=[N+]([O-])OCc1ccc(-c2cc3c(cc2Cc2cc(F)cc(F)c2)OCO3)cc1` [Example 23d, ((4-(6-((3,5-Difluorophenyl)methyl)(2H-benzo(3,4-d)1,3-dioxolan-5-yl))phenyl)methyl)nitrooxy], the “COX-2 Inhibition (% at 10 μM)” value on COX-2 was determined as 30%. For the same compound, the “COX-1 Inhibition (% at 100 μM)” value on COX-1 stood at 65%.
For `CS(=O)(=O)c1ccc(-c2cc3c(cc2Cc2cc(F)cc(F)c2)OC(C(=O)NCCO)CO3)cc1` (stereo not shown) [Example 18b, (7-((3,5-Difluorophenyl)methyl)-6-(4-(methylsulfonyl)phenyl)(2H, 3H-benzo(e)1,4-dioxin-2-yl))-N-(2-hydroxyethyl)carboxamido], the “COX-2 Inhibition (% at 10 μM)” value on COX-2 is recorded as 25%. The “COX-1 Inhibition (% at 100 μM)” value on COX-1 is 50%.
Taken in the same sequence, the figures for `Cc1ccc(F)c(C(=O)c2cc3c(cc2-c2ccc(S(C)(=O)=O)cc2)OCO3)c1` [Example 14c, 2-Fluoro-5-methylphenyl6-(4-(methylsulfonyl)phenyl)(2H-benzo(d)1,3-dioxolan-5-yl)ketone] were 75% and 90%.
`CS(=O)(=O)c1ccc(-c2cc(O)c(O)cc2Cc2cc(F)cc(F)c2)cc1` [Example 17e, 5-(1-(3′,5′-Difluorophenyl)methyl)-1,2-dihydroxy-4-(4-methylsulfonylphenyl)benzene]: the “COX-2 Inhibition (% at 10 μM)” value on COX-2 stood at 25%. Moreover, at COX-1, the “COX-1 Inhibition (% at 100 μM)” value was determined as 35%.
As to `CS(=O)(=O)c1ccc(-c2cc(O)c(O)cc2C(=O)c2cc(F)cc(F)c2)cc1` [Example 17h, 4-(1-(3′,5′-Difluorophenyl)-1-oxomethyl)-1,2-hydroxy-5-(4-methylsulfonylphenyl)benzene], the “COX-2 Inhibition (% at 10 μM)” value at COX-2 is 55%. The “COX-1 Inhibition (% at 100 μM)” value at COX-1 is given as 65%.
In the same order, the values of `CS(=O)(=O)c1ccc(-c2cc3c(cc2Cc2cc(F)cc(F)c2)OC(C(=O)NCCO[N+](=O)[O-])CO3)cc1` (stereo not shown) [Example 18d, (7-((3,5-Difluorophenyl)methyl)-6-(4-(methylsulfonyl)phenyl)(2H, 3H-benzo(e)1,4-dioxin-2-yl))-N-(2-(nitrooxy)ethyl)carboxamido] are 40% and 60%.
For `COc1cccc(C(=O)c2cc3c(cc2-c2ccc(S(C)(=O)=O)cc2)OCO3)c1` [Example 13c, 3-Methoxyphenyl-6-(4-(methylsulfonyl)phenyl)(2H-benzo(d)1,3-dioxolan-5-yl) ketone], the “COX-2 Inhibition (% at 10 μM)” value at COX-2 came out at 75%. For the same compound, on COX-1, the “COX-1 Inhibition (% at 100 μM)” value was 90%.
